Key:
[1] = tested on: MCF7 cell line with low HER2 expression (HER2+), p53 WT; assay: 72 hour cytotoxicity assay (CellTiter-Glo), MCF7; format: cell-based; conditions: wild-type p53 (sensitive to MDM2 inhibition), FIG. 6A
Method: (§1) Cell culture: Cell lines were maintained in appropriate medium supplemented with fetal bovine serum to a final concentration of 10%.
(§2) 72 hour cytotoxicity assay: Cells were plated in a 96-well format, and after 24 hour incubation, serial dilutions of SPACs from a 1 mg/mL stock, or vehicle, were then added to the cells in a final volume of 100 μl. After incubating at 37° C. for 72 hours, 100 μl of CellTiter-Glo® reagent was added to the cells, and the plates were incubated 15 minutes at room temperature. Luminescence was then measured on a microplate reader.

[2] = tested on: HER2+++ p53 mut breast cancer cell line (SK-BR-3); assay: 72 hour cytotoxicity assay (CellTiter-Glo), SK-BR-3; format: cell-based; conditions: SK-BR-3, highly expresses HER2, mutated p53 (insensitive to MDM2 inhibition); FIG. 6B
Method: as §1, §2

## Trastuzumab emtansine
[1]
  anti-proliferative activity: no activity
[2]
  activity (efficacy vs concentration): shows efficacy at relatively low concentration
